{"source": "patent US20060167098A1", "about": "“Method for the treatment of diseases linked to an accumulation of triglycerides and cholesterol” (Institut National De La Sante ET De LA Recherche Medicale …, priority 2003, published 2006)", "format_in_all_cases": "in vivo", "key": {"[1]": {"experiment": "Body fat mass by DEXA in genetically obese ob/ob mice", "details": "100 mg/kg/day", "excerpt": "(§1) Six to 8 weeks old male (Crl:CD-1(ICR)BR) Swiss mice, and six to ten weeks old male RjOrl Swiss mice (i.e. lean mice) weighing 28 and 32 grams were purchased from Dépré (Saint Doulchard, France). Ten to 12 weeks old ob/ob male (C57BL/6-ob) mice (i.e. obese mice), weighing 40 to 44 grams were purchased from Janvier (Le-Genest-St-Isle, France). In one experiment, younger ob/ob mice (5-6 weeks old) weighing 25-26 grams were also studied. In genetically obese ob/ob mice, a mutation on the gene of leptin prevents the normal production of this hormone, thus increasing appetite and decreasing energy consumption (Friedman J. M., Halaas J. L., 1998, Nature 395 : 763-770). […] The animals were acclimatized for one to two weeks before the start of experiments.\n(§2) D,L-β-Aminoisobutyric acid (BAIBA) was purchased from Sigma-Aldrich. BAIBA has been administered in drinking water at the dose of 100 mg/kg/day or 500 mg/kg/day for 6 weeks, 2 months or 4 months according to the experiments.\n(§3) The in vivo determination of body fat mass in anesthetized mice has been performed by “DEXA” (Dual Energy X-ray Absorptiometry) (Pietriobelli A., Formica C., Wang Z., Heymsfield S. B., 1996, Am. J. Physiol. 271 (Endocrinol. Metab. 34): E941-E951)). […] It is noteworthy that DEXA also gives for each investigated animal its lean mass that is the total amount of water and proteins (in grams) in the body (excluding the head). Therefore, for a given animal, DEXA allows the determination of the percentage of body fat which is its body fat mass divided by the sum of its body lean and fat masses (fat mass/(lean mass+fat mass)). The “DEXA” apparatus was a Piximus® from Lunar Corporation (Madison, Wis.). Mice were anesthetized thanks to a mixture of xylazine and ketamine.\nProcedure 1: the animals were not fasted before DEXA investigations. The first DEXA measurement was performed one day before the beginning of the investigation (T0). Afterwards, DEXA measurements have been respectively performed two weeks (T2) and six weeks (T6) after the beginning of the treatment. […]"}, "[2]": {"experiment": "Gain of body fat mass by DEXA in Swiss mice, standard diet, not fasted", "details": "100 mg/kg/day; for gain of body fat: standard diet, not fasted", "excerpt": "as §1, §2, §3\nProcedure 1: the animals were not fasted before DEXA investigations. The first DEXA measurement was performed one day before the beginning of the investigation (T0). Afterwards, DEXA measurements have been respectively performed two weeks (T2) and six weeks (T6) after the beginning of the treatment. With this procedure, it has been possible to determine in each group of animals the evolution of several parameters (e.g. fat mass, body weight) between respectively T0 and T2, and T2 and T6. Comparisons of these evolutions were thus performed for the T0-T2, T2-T6 and T0-T6 periods.\nIn a second series of investigations, we sought to determine as to whether of 100 mg/kg/day of β-aminoisobutyric acid (BAIBA) decreases body fat in Swiss mice not submitted to fast before DEXA measurements. Mice were 6 to 8 weeks old at the beginning of the experiment. In this experiment, DEXA was performed one day before the beginning of the treatment (T0) and then two and six weeks after the initiation of the experience (T2 and T6, respectively). This allowed us to determine for each animal the variation of body fat mass for the different periods of the treatment (T0-T2, T2-T6 and T0-T6). […] This effect of BAIBA is submitted in FIG. 2."}, "[3]": {"experiment": "Plasma glucose, insulin and adiponectin in very young ob/ob mice (5-6 weeks old), 6 weeks", "method": "Plasma glucose was measured on an automatic analyser (Synchron LX20 from Beckman Coulter) with a commercial kit (kit n°472500 from Beckman).\nPlasma insulin, adiponectin and leptin were measured by radioimmunoassay (RIA). Insulin was measured with the Insulin-CT kit from Cis Bio International (Gif-sur-Yvette, France), whereas plasma leptin and adiponectin were assessed with kits from Linco Research Inc. (St Charles, Mo.). Leptin was not measured in ob/ob mice since these animals are genetically leptin-deficient (Friedman J. M., Halaas J. L., 1998, Nature 395: 763-770). Results regarding insulin were expressed as recommended by kit manufacturer.\nIn another experiment, very young ob/ob mice (5-6 weeks old) were treated with 100 mg/kg/d of β-aminoisobutyric acid for 6 weeks and fasted for the last 48 hours. Although plasma glucose was not decreased in treated mice, there was a clear trend toward lower insulin and higher adiponectin. Indeed, plasma insulin was 56±9 and 37±5 μU/ml (p=0.08), respectively in control mice (n=7) and mice treated with β-aminoisobutyric acid (n=7). Plasma adiponectin was 8.0±1.1 and 10.9±1.2 μg/ml (p=0.08), respectively in control mice (n=7) and mice treated with β-aminoisobutyric acid (n=7)."}, "[4]": {"experiment": "Liver triglycerides in ob/ob mice, 6 weeks", "details": "100 mg/kg/day 6 weeks, fasted 48 h", "method": "Total lipids and triglycerides in the liver of animals were assessed according to a procedure partially reported by (Letteron P., Fromenty B., Terris B., Degott C., Pessayre D., 1996, J. Hepatol. 24 : 200-208). Briefly, after killing of the animals, livers were removed and homogenized in sterile water. Hepatic lipids were thus extracted by a mixture of chloroform and methanol (2/1; v/v). After removal of the aqueous phase, the organic phase (chloroform containing the lipids) was evaporated and the amount of lipids was determined by gravimetry. Lipids were subsequently resuspended in isopropanol (final concentration, ca. 10 mg/mL). After removal of the phopholipids by using aluminum hydroxide hydrate, triglycerides were determined colorimetrically by using periodate and the Nash's reagent (containing acetylacetone, ammonium acetate and isopropanol). The reaction generates diacetyldihydrolutidine which is assayed by spectrophotometry (λ=410 nm).\nLiver triglycerides were assessed in ob/ob mice fed with a standard diet and receiving or not of 100 mg/kg/day of β-aminoisobutyric acid (BAIBA) in the drinking water during 6 weeks. Mice were 10 weeks old at the beginning of the experiment. These animals (7 controls and 10 treated with BAIBA) were different from those used for the determination of body fat by DEXA in the fed state (see above, paragraph I-d). At the end of the 6 weeks of treatment mice were submitted to a 48-hour period of fast At the end of this fasting period mice were killed for assessment of liver triglycerides. […] Indeed, liver triglycerides were reduced by 16 and 12%, respectively when the values were expressed as mg/whole liver or as mg/gram of lipids."}, "[5]": {"details": "100 mg/kg/d 6 weeks, very young ob/ob, fasted 48 hours, p=0.08"}}, "data": [{"smiles": "CC(CN)C(=O)O", "note": "(racemic) [BAIBA, D,L-β-Aminoisobutyric acid]", "values": [{"measurement": "gain of body fat", "setting": "[1]; 10-12 weeks old ob/ob mice, first two weeks", "value": "4.65±0.35", "unit": "grams"}, {"measurement": "reduction of body fat", "setting": "[1]; 10-12 weeks old ob/ob mice, first two weeks, not significant", "value": 11, "unit": "%"}, {"measurement": "gain of body fat", "setting": "[1]; ob/ob mice, T0-T6", "value": "7.30±0.61", "unit": "grams"}, {"measurement": "gain of body fat", "setting": "[2]; T0-T2 period", "value": "0.56±0.12", "unit": "grams"}, {"measurement": "gain of body weight", "setting": "[2]; T0-T6", "value": "9.02±0.42", "unit": "grams"}, {"measurement": "reduction of the gain of fat mass", "setting": "[2]; T0-T6, standard diet, vs control", "value": 55, "unit": "%"}, {"measurement": "reduction of the gain of body weight", "setting": "[2]; T0-T6, vs control, p<0.01", "value": 12, "unit": "%"}, {"measurement": "gain of body fat", "setting": "[2]; T0-T6 period", "value": "0.84±0.18", "unit": "grams"}, {"measurement": "gain of body fat", "setting": "[2]; T2-T6 period", "value": "0.28±0.12", "unit": "grams"}, {"measurement": "plasma glucose vs control", "setting": "[3]; 100 mg/kg/d 6 weeks, very young ob/ob, fasted 48 hours", "value": "not decreased"}, {"measurement": "plasma adiponectin", "setting": "[3]; [5]", "value": "10.9 ± 1.2", "unit": "µg/mL"}, {"measurement": "plasma insulin", "setting": "[3]; [5]", "value": "37±5", "unit": "μU/ml"}, {"measurement": "increase of plasma level of adiponectin", "setting": "[3]; obese mice", "value": "around 35%"}, {"measurement": "reduction of liver triglycerides (values as mg/gram of lipids)", "setting": "[4]", "value": 12, "unit": "%"}, {"measurement": "reduction of liver triglycerides (values as mg/whole liver)", "setting": "[4]", "value": 16, "unit": "%"}, {"measurement": "liver triglycerides", "setting": "[4]; p<0.01", "value": "625±14 mg/g of lipids"}]}]}
